Test results reported in PubChem BioAssay AID1918958 (Molecular Pharmacology Branch, DTP, NCI, 2023).
Where “and” joins values, the source holds several entries; their conditions need not be identical. Identical values can stand only once.

System: NCI-H196 complex spheroid viability
Test: Anticancer human tumor NCI-H196 cell line growth inhibition [LSD1];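 note: spheroids exposed to agents for 7 days before readout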;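 for viability, T/C: 100% = DMSO vehicle control viability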
Conditions: for viability, T/C: stronger effect = lower value
Outline: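 Multicellular complex spheroids of tumor cells with human endothelial cells (HUVEC) and mesenchymal stem cells; the LSD1 inhibitor iadademstat was combined with standard-of-care or investigational agents. Top concentration at or near clinical Cmax, half-log dilutions; final DMSO ≤0.25%.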

[1] = curve of first compound, second compound 0.1 µM
[2] = curve of first compound, second compound 0.316 µM
[3] = curve of first compound, second compound 1 µM
[4] = curve of first compound, second compound 3.16 µM
[5] = curve of first compound, second compound 10 µM
[6] = second compound 0.1 µM, first compound 0.00949 µM
[7] = second compound 0.1 µM, first compound 0.03 µM
[8] = second compound 0.1 µM, first compound 0.0949 µM
[9] = second compound 0.1 µM, first compound 0.3 µM
[10] = second compound 0.1 µM, first compound 0.949 µM
[11] = second compound 0.1 µM, first compound 3 µM
[12] = second compound 0.316 µM, first compound 0.00949 µM
[13] = second compound 0.316 µM, first compound 0.03 µM
[14] = second compound 0.316 µM, first compound 0.0949 µM
[15] = second compound 0.316 µM, first compound 0.3 µM
[16] = second compound 0.316 µM, first compound 0.949 µM
[17] = second compound 0.316 µM, first compound 3 µM
[18] = second compound 1 µM, first compound 0.00949 µM
[19] = second compound 1 µM, first compound 0.03 µM
[20] = second compound 1 µM, first compound 0.0949 µM
[21] = second compound 1 µM, first compound 0.3 µM
[22] = second compound 1 µM, first compound 0.949 µM
[23] = second compound 1 µM, first compound 3 µM
[24] = second compound 3.16 µM, first compound 0.00949 µM
[25] = second compound 3.16 µM, first compound 0.03 µM
[26] = second compound 3.16 µM, first compound 0.0949 µM
[27] = second compound 3.16 µM, first compound 0.3 µM
[28] = second compound 3.16 µM, first compound 0.949 µM
[29] = second compound 3.16 µM, first compound 3 µM
[30] = second compound 10 µM, first compound 0.00949 µM
[31] = second compound 10 µM, first compound 0.03 µM
[32] = second compound 10 µM, first compound 0.0949 µM
[33] = second compound 10 µM, first compound 0.3 µM
[34] = second compound 10 µM, first compound 0.949 µM
[35] = second compound 10 µM, first compound 3 µM
[36] = second compound 0.1 µM, first compound 0.0316 µM
[37] = second compound 0.1 µM, first compound 0.1 µM
[38] = second compound 0.1 µM, first compound 0.316 µM
[39] = second compound 0.1 µM, first compound 1 µM
[40] = second compound 0.1 µM, first compound 3.16 µM
[41] = second compound 0.1 µM, first compound 10 µM
[42] = second compound 0.316 µM, first compound 0.0316 µM
[43] = second compound 0.316 µM, first compound 0.1 µM
[44] = second compound 0.316 µM, first compound 0.316 µM
[45] = second compound 0.316 µM, first compound 1 µM
[46] = second compound 0.316 µM, first compound 3.16 µM
[47] = second compound 0.316 µM, first compound 10 µM
[48] = second compound 1 µM, first compound 0.0316 µM
[49] = second compound 1 µM, first compound 0.1 µM
[50] = second compound 1 µM, first compound 0.316 µM
[51] = second compound 1 µM, first compound 1 µM
[52] = second compound 1 µM, first compound 3.16 µM
[53] = second compound 1 µM, first compound 10 µM
[54] = second compound 3.16 µM, first compound 0.0316 µM
[55] = second compound 3.16 µM, first compound 0.1 µM
[56] = second compound 3.16 µM, first compound 0.316 µM
[57] = second compound 3.16 µM, first compound 1 µM
[58] = second compound 3.16 µM, first compound 3.16 µM
[59] = second compound 3.16 µM, first compound 10 µM
[60] = second compound 10 µM, first compound 0.0316 µM
[61] = second compound 10 µM, first compound 0.1 µM
[62] = second compound 10 µM, first compound 0.316 µM
[63] = second compound 10 µM, first compound 1 µM
[64] = second compound 10 µM, first compound 3.16 µM
[65] = second compound 10 µM, first compound 10 µM

SMILES: NS(=O)(=O)OCC1CC(n2ccc3c(NC4CCc5ccccc54)ncnc32)CC1O (configuration not stated) + NC1CCC(NC2CC2c2ccccc2)CC1
- IC50 [1]: > 3 µM
- IC50 [2]: > 3 µM
- IC50 [3]: > 3 µM
- IC50 [4]: > 3 µM
- IC50 [5]: > 3 µM
- viability, T/C [6]: 109%
- viability, T/C [7]: 103%
- viability, T/C [8]: 79.6%
- viability, T/C [9]: 89.3%
- viability, T/C [10]: 84.7%
- viability, T/C [11]: 71.4%
- viability, T/C [12]: 108%
- viability, T/C [13]: 104%
- viability, T/C [14]: 79.2%
- viability, T/C [15]: 78%
- viability, T/C [16]: 78.6%
- viability, T/C [17]: 72.7%
- viability, T/C [18]: 103%
- viability, T/C [19]: 101%
- viability, T/C [20]: 76.2%
- viability, T/C [21]: 81.8%
- viability, T/C [22]: 82.7%
- viability, T/C [23]: 77.6%
- viability, T/C [24]: 92.5%
- viability, T/C [25]: 109%
- viability, T/C [26]: 77.7%
- viability, T/C [27]: 80.5%
- viability, T/C [28]: 76.9%
- viability, T/C [29]: 71.6%
- viability, T/C [30]: 102%
- viability, T/C [31]: 95.4%
- viability, T/C [32]: 73.6%
- viability, T/C [33]: 83.6%
- viability, T/C [34]: 78.3%
- viability, T/C [35]: 64.7%

SMILES: CC1(C)CCC(CN2CCN(c3ccc(C(=O)NS(=O)(=O)c4ccc(NCC5CCOCC5)c([N+](=O)[O-])c4)c(Oc4cnc5[nH]ccc5c4)c3)CC2)=C(c2ccc(Cl)cc2)C1 + NC1CC1c1ccc(-c2cccc(O)c2)cc1
- IC50 [1]: 5.68 µM
- IC50 [2]: 5.2 µM
- IC50 [3]: 5.54 µM
- IC50 [4]: 5.49 µM
- IC50 [5]: 4.93 µM
- viability, T/C [36]: 91.2%
- viability, T/C [37]: 99.9%
- viability, T/C [38]: 99%
- viability, T/C [39]: 84.2%
- viability, T/C [40]: 85.7%
- viability, T/C [41]: 16.9%
- viability, T/C [42]: 98.6%
- viability, T/C [43]: 101%
- viability, T/C [44]: 87.1%
- viability, T/C [45]: 84%
- viability, T/C [46]: 79.2%
- viability, T/C [47]: 16.1%
- viability, T/C [48]: 94.3%
- viability, T/C [49]: 97.4%
- viability, T/C [50]: 95.6%
- viability, T/C [51]: 95.7%
- viability, T/C [52]: 79.2%
- viability, T/C [53]: 19%
- viability, T/C [54]: 96.5%
- viability, T/C [55]: 105%
- viability, T/C [56]: 101%
- viability, T/C [57]: 84.8%
- viability, T/C [58]: 80.6%
- viability, T/C [59]: 20%
- viability, T/C [60]: 94.9%
- viability, T/C [61]: 95.6%
- viability, T/C [62]: 97.3%
- viability, T/C [63]: 92.1%
- viability, T/C [64]: 72.5%
- viability, T/C [65]: 14.2%

SMILES: COc1ccc([C@@H](O)c2cc(-c3ncnc4cc(N5CCOCC5)ccc34)c(F)cc2Cl)nn1 + NC1CC1c1ccc(-c2cccc(O)c2)cc1
- IC50 [1]: > 10 µM
- IC50 [2]: > 10 µM
- IC50 [3]: > 10 µM
- IC50 [4]: > 10 µM
- IC50 [5]: 6.48 µM
- viability, T/C [36]: 106%
- viability, T/C [37]: 98.6%
- viability, T/C [38]: 79.1%
- viability, T/C [39]: 68.4%
- viability, T/C [40]: 64.2%
- viability, T/C [41]: 52%
- viability, T/C [42]: 92%
- viability, T/C [43]: 90%
- viability, T/C [44]: 82.7%
- viability, T/C [45]: 71%
- viability, T/C [46]: 60.7%
- viability, T/C [47]: 50%
- viability, T/C [48]: 102%
- viability, T/C [49]: 94.7%
- viability, T/C [50]: 90%
- viability, T/C [51]: 69.4%
- viability, T/C [52]: 62.2%
- viability, T/C [53]: 50.1%
- viability, T/C [54]: 94.9%
- viability, T/C [55]: 105%
- viability, T/C [56]: 90.8%
- viability, T/C [57]: 68.2%
- viability, T/C [58]: 59.9%
- viability, T/C [59]: 48.2%
- viability, T/C [60]: 103%
- viability, T/C [61]: 100%
- viability, T/C [62]: 86.2%
- viability, T/C [63]: 72.8%
- viability, T/C [64]: 59.2%
- viability, T/C [65]: 44.7%

SMILES: Nc1ncn(C2CC(O)C(CO)O2)c(=O)n1 (configuration not stated)
- viability, T/C (compound 0.00316 µM): 106% and 105%
- viability, T/C (compound 0.01 µM): 92.3% and 102%
- viability, T/C (compound 0.0316 µM): 95.5% and 99.8%
- viability, T/C (compound 0.1 µM): 101% and 103%
- viability, T/C (compound 0.316 µM): 100% and 102%
- viability, T/C (compound 1 µM): 93.5% and 97.9%
- IC50 (curve of compound): > 1 µM

SMILES: O=C(C=Cc1cccc(S(=O)(=O)Nc2ccccc2)c1)NO + NC1CCC(NC2CC2c2ccccc2)CC1
- IC50 [1]: 0.163 µM
- IC50 [2]: 0.139 µM
- IC50 [3]: 0.158 µM
- IC50 [4]: 0.145 µM
- IC50 [5]: 0.138 µM
- viability, T/C [6]: 99.6%
- viability, T/C [7]: 103%
- viability, T/C [8]: 75.4%
- viability, T/C [9]: 21.1%
- viability, T/C [10]: 0.51%
- viability, T/C [11]: 0.44%
- viability, T/C [12]: 93.9%
- viability, T/C [13]: 101%
- viability, T/C [14]: 65.8%
- viability, T/C [15]: 16.7%
- viability, T/C [16]: 0.24%
- viability, T/C [17]: 1.63%
- viability, T/C [18]: 94.5%
- viability, T/C [19]: 93.4%
- viability, T/C [20]: 75.4%
- viability, T/C [21]: 18.4%
- viability, T/C [22]: 0.31%
- viability, T/C [23]: 0.36%
- viability, T/C [24]: 96.9%
- viability, T/C [25]: 92.3%
- viability, T/C [26]: 68.5%
- viability, T/C [27]: 18.5%
- viability, T/C [28]: 0.41%
- viability, T/C [29]: 0.27%
- viability, T/C [30]: 88.8%
- viability, T/C [31]: 89.8%
- viability, T/C [32]: 64.7%
- viability, T/C [33]: 18.6%
- viability, T/C [34]: 0.76%
- viability, T/C [35]: 0.84%
